System: titer of VEGFR binding protein 1
Assay: Correlation and regression of component concentration against protein titer of VEGFR binding protein 1
Assay type: cell-based
Details: regression line; for protein titer versus concentration of the component in the cell culture medium: N=70, extrapolated estimation from soy hydrolysate data, FIG. 3 / FIG. 5; for protein titer versus concentration of the component in the soy hydrolysate added to the cell culture medium: N=70, enriched medium (soy hydrolysate), FIG. 2 / FIG. 4
Method: The impact of 5-methythioadenosine on production of a recombinant protein (VEGFR binding protein 1) was studied by investigating the protein titer (g/L) at different concentrations of 5-methythioadenosine present in the cell culture medium.
An enriched medium (soy hydrolysate) comprising 5-methythioadenosine was added to the cell culture medium.
Based on the correlation data obtained from studying the effect of 5-methythioadenosine concentrations in the enriched medium (soy hydrolysate) supplemented to the cell culture medium (Example 2, FIG. 2), an estimation as to the optimum concentration of 5-MTA in a cell culture was made.
The impact of nicotinamide on a recombinant protein (VEGFR binding protein 1) titer was also studied by investigating the protein titer (g/L) at different concentrations of nicotinamide present in the cell culture medium.
An enriched medium (soy hydrolysate) comprising nicotinamide was added to the cell culture medium at varying concentrations.
Based on the correlation data obtained from studying the effect of nicotinamide concentration in enriched medium (soy hydrolysate) supplemented to the cell culture medium (Example 4, FIG. 4), an estimation as to the optimum concentration of nicotinamide in a cell culture was made.

CSC[C@H]1O[C@@H](n2cnc3c(N)ncnc32)[C@H](O)[C@@H]1O [5-methylthioadenosine (MTA), 5-Deoxy-5′-methylthioadenosine]
protein titer versus concentration of the component in the cell culture medium: titer can vary linearly | protein titer versus concentration of the component in the soy hydrolysate added to the cell culture medium: titer varied linearly

NC(=O)c1cccnc1 [Nicotinamide, 3-Pyridinecarboxamide]
protein titer versus concentration of the component in the cell culture medium: titer can vary linearly | protein titer versus concentration of the component in the soy hydrolysate added to the cell culture medium: titer varied linearly

Source: US11821001B2, “Cell culture medium for eukaryotic cells” (Regeneron Pharmaceuticals, Inc., priority 2019, dated 2023)
